Laboratory results published in US9809861B2, “Method of evaluating inhibitory effect on damp-dry malodor” (Kao Corporation, priority 2012, dated 2017).

Legend:
Moraxella sp. KMC4-1 [1] = experiment: Bactericidal test; assay type: cell-based; conditions: 10^6 CFU/mL, 2 hours, 25° C.; Substance (1) 10 ppm, (2)(3)(5)(6) 100 ppm, (4) 500 ppm
Protocol: To 5 mL of a test solution in which the substances (1) to (7) each were added so as to be the final concentration described in Table 15, the precultured Moraxella sp. KMC4-1 was inoculated so as to be the concentration of 10^6 CFU/mL and cultured for 2 hours at 25° C. while shaking (160 rpm). After that, it was subjected to serial dilution using LP dilution solution (NIHON PHARMACEUTICAL CO., LTD). Then, by using SCD-LP agar medium (NIHON PHARMACEUTICAL CO., LTD), the number of bacteria remained alive was determined.
As for the growth-inhibitory and the bactericidal effect, the evaluation was made as follows: compared to the control, when there was the bacteria number decrease of log 3 or more, it was rated as “A”; when there was the bacteria number decrease of log 1 or more but less than log 3, it was rated as “B”; and when there was the bacteria number decrease of less than log 1, it was rated as “C”.

Moraxella sp. KMC4-1 [2] = experiment: Sensory evaluation of inhibitory effect on damp-dry malodor on model examination cloth; assay type: cell-based; conditions: summary of Table 14
Protocol: Subsequently, by using Moraxella sp. KMC4-1, which is one kind of the microorganisms which produce damp-dry malodor-causing substances, sensory evaluation of the inhibitory effect on damp-dry malodor by the test substance and measurement of production amount of 4M3H as one kind of the damp-dry malodor-causing substances were carried out.
Moraxella sp. KMC4-1 was inoculated as a test microbe onto SCD-LP agar medium (manufactured by Wako Pure Chemical Industries, Ltd.) and cultured for 1 to 2 weeks at room temperature to give a pre-culture plate. Colony surface was scraped off from the pre-culture plate, suspended in 5 mL of physiological saline, and OD600 was adjusted to 1.0 (about 10^8 CFU/mL).
A cotton jersey cloth obtained in a constant state after sterilization and drying at 25° C., 40% RH (cotton jersey manufactured by Shikisensha Colo., LTD., without silket finish) was cut to a square of 2 cm×2 cm. To the cloth, a solution prepared by dissolving 0.5 mg of 14-methylhexadecanoic acid, as a sebaceous dirt component, in 0.1 mL methanol, was applied. Then, methanol was dried to solid, to give a model examination cloth.
Methanol solution was prepared for each test substance and applied at 20° C. on the model examination cloth such that applied amount of each test substance was […] per gram of the model examination cloth. It was then dried for 2 hours at room temperature to dry methanol. Thereafter, 0.1 mL of the microbe suspension was coated onto the model examination cloth, and cultured for 24 hours in a petri dish using an incubator at 37° C. with relative humidity of 70%, to obtain a microbe-fixed cloth.
The sensory test of the model examination cloth was evaluated by a professional panel who can distinguish different subjects based on the damp-dry malodor. A sample, in which an inhibitory effect on damp-dry malodor was confirmed, was rated as “A”; a sample, in which it was difficult to determine the inhibitory effect on damp-dry malodor or a Weak inhibitory effect on damp-dry malodor was confirmed, was rated as “B; and a sample, in which no inhibitory effect on damp-dry malodor was confirmed, was rated as “C”.

Δ9desaturase gene = experiment: Change in expression amount of Δ9desaturase gene in the presence of test substance (real time PCR); assay type: cell-based, Moraxella sp. KMC4-1; conditions: for Change in the expression amount of Δ9desaturase gene: Substance (1) 10 ppm, (2)(3)(5)(6) 100 ppm, (4) 500 ppm
Protocol: The substances (1) to (7) described below each were added to 4 mL SCD liquid medium (manufactured by NIHON PHARMACEUTICAL CO., LTD). As a control, a medium system not added with any test substance was also prepared. To these medium, one platinum loop of precultured Moraxella sp. KMC4-1 was inoculated and cultured for 24 hours at 35 C while shaking (160 rpm).
To the cell liquid cultured for 24 hours, 10 mg of 16-methyloctadecanoic acid was added as a sebaceous dirt component. After culturing again for 6 hours at 35° C., the cells were collected. As a control, a system not added with a sebaceous dirt component was also cultured and cells were collected therefrom.
An RNA sample was prepared from the collected cells in the same manner as in the test example 1.
By mixing 2 μL solution of the prepared template diluted ×20 with distilled sterile water, 12.5 μL of TaKaRa SYBR Premix EX Taq (trade name, manufactured by Takara Bio Inc.), 0.5 μL of the primer (des_F1, […]) containing the oligonucleotide having the base sequence set forth in SEQ ID NO: 13, 0.5 μL of the primer (des_R1, […]) containing the oligonucleotide having the base sequence set forth in SEQ ID NO: 14 and 9.5 μL of distilled sterile water, 25 μL reaction solution for real time PCR was prepared.
Reaction solutions for real time PCR were prepared in the same manner as above, except that, instead of the primer set including the primer containing the oligonucleotide having the base sequence set forth in SEQ ID NO: 13 and the primer containing the oligonucleotide having the base sequence set forth in SEQ ID NO: 14, the primer set described in Tables 11 to 13 was used.
The reaction solutions for real time PCR each were subjected to a gene amplification by using an automatic gene amplification thermal cycler DICE Real time system II (manufactured by Takara Bio Inc.), and then the expression amount of each of the fatty acid desaturase gene (the Δ9desaturase gene) and the β oxidation-relating enzyme genes (the fadB gene and the fadD gene) was measured. PCR reaction conditions were 40 cycles of (i) a thermal denaturation reaction at 95° C. for 20 seconds, and (ii) an annealing reaction and an elongation reaction at 60° C. for 30 seconds.
By having the gene expression of 16S rRNA as an internal standard, and having the gene expression amount when adding no sebaceous dirt component and no test substance as a reference value, change in expression amount of each gene was calculated relative to the reference value. A sample, in which the expression amount of the gene was ½ times or less the reference value, was rated as “A”; a sample, in which the expression amount of the gene was more than ½ times and ⅔ times or less the reference value, was rated as “B”; and a sample, in which the expression amount of the gene was more than ⅔ times the reference value, was rated as “C”.

[3] = primers SEQ ID NO: 13 / 14, 16-methyloctadecanoic acid added, relative to reference without sebaceous dirt component and test substance

Row | Compound | Bactericidal effect (Moraxella sp. KMC4-1 [1]) | inhibitory effect on damp-dry malodor (Moraxella sp. KMC4-1 [2]) | Change in the expression amount of Δ9desaturase gene (Δ9desaturase gene; [3]) | Change in the expression amount of Δ9desaturase gene (Δ9desaturase gene; primers SEQ ID NO: 15 / 16) | Change in the expression amount of Δ9desaturase gene (Δ9desaturase gene; primers SEQ ID NO: 17 / 18) | Change in the expression amount of Δ9desaturase gene (Δ9desaturase gene; primers SEQ ID NO: 19 / 20) | Change in the expression amount of Δ9desaturase gene (Δ9desaturase gene; primers SEQ ID NO: 21 / 22) | Change in the expression amount of Δ9desaturase gene (Δ9desaturase gene; primers SEQ ID NO: 23 / 24) | expression amount of the Δ9desaturase gene by the microorganisms (Δ9desaturase gene; summary of Table 11)
1 | CNc1ccccc1C(=O)OC [Substance (3)] | C (the bacteria number decrease of less than log 1) | an inhibitory effect on damp-dry malodor was observed | C (the expression amount of the gene was more than ⅔ times the reference value) | C (the expression amount of the gene was more than ⅔ times the reference value) | C (the expression amount of the gene was more than ⅔ times the reference value) | C (the expression amount of the gene was more than ⅔ times the reference value) | C (the expression amount of the gene was more than ⅔ times the reference value) | C (the expression amount of the gene was more than ⅔ times the reference value) | –
2 | CCCCCCCC/C=C\CCCCCCCC(=O)O [Substance (4)] | C (the bacteria number decrease of less than log 1) | an inhibitory effect on damp-dry malodor was observed | C (the expression amount of the gene was more than ⅔ times the reference value) | C (the expression amount of the gene was more than ⅔ times the reference value) | C (the expression amount of the gene was more than ⅔ times the reference value) | C (the expression amount of the gene was more than ⅔ times the reference value) | C (the expression amount of the gene was more than ⅔ times the reference value) | C (the expression amount of the gene was more than ⅔ times the reference value) | –
3 | CC(=O)OC(C)(C)Cc1ccccc1 [Substance (2)] | C (the bacteria number decrease of less than log 1) | an inhibitory effect on damp-dry malodor was observed | C (the expression amount of the gene was more than ⅔ times the reference value) | B (the expression amount of the gene was more than ½ times and ⅔ times or less the reference value) | B (the expression amount of the gene was more than ½ times and ⅔ times or less the reference value) | B (the expression amount of the gene was more than ½ times and ⅔ times or less the reference value) | C (the expression amount of the gene was more than ⅔ times the reference value) | C (the expression amount of the gene was more than ⅔ times the reference value) | –
4 | O=C[C@H](O)[C@@H](O)[C@H](O)[C@H](O)CO [Substance (5)] | C (the bacteria number decrease of less than log 1) | – | C (the expression amount of the gene was more than ⅔ times the reference value) | C (the expression amount of the gene was more than ⅔ times the reference value) | C (the expression amount of the gene was more than ⅔ times the reference value) | C (the expression amount of the gene was more than ⅔ times the reference value) | C (the expression amount of the gene was more than ⅔ times the reference value) | C (the expression amount of the gene was more than ⅔ times the reference value) | –
5 | CCCCCCCCCC=O [Substance (1)] | C (the bacteria number decrease of less than log 1) | an inhibitory effect on damp-dry malodor was observed | B (the expression amount of the gene was more than ½ times and ⅔ times or less the reference value) | B (the expression amount of the gene was more than ½ times and ⅔ times or less the reference value) | A (the expression amount of the gene was ½ times or less the reference value) | A (the expression amount of the gene was ½ times or less the reference value) | B (the expression amount of the gene was more than ½ times and ⅔ times or less the reference value) | B (the expression amount of the gene was more than ½ times and ⅔ times or less the reference value) | decreased
